This is an account of results in article PMC12720774, “Detergents alter the stability and lipid binding properties of the CD1d immunoreceptor” (Protein Science : A Publication of the Protein Society, 2025).

Series [1] has as its target T1, AF647‐labeled hCD1d (Homo sapiens, UniProt P15813+P61769).
T1 construct: TEV protease cleavage site ENLYFQS (C); BirA biotinylation site (C); His7 (C); made in house; host or cells: TurboCHO cells (GenScript)
Kind of series: Microscale thermophoresis (MST) binding assay. The text has this: (§1) The experimental limitations of ITF, such as low instrument sensitivity, high sample consumption, signal overlap with some ligands, and low throughput (Fossum et al., [2023]), made it necessary to employ alternative, complementary assays to quantify detergent binding to hCD1d. […] MST measures the diffusion of fluorescent molecules in response to microscopic temperature gradients (Seidel et al., [2013]). When a protein forms a complex with a ligand, changes in hydrodynamic properties, charge, or solvation energy alter its thermophoretic behavior, allowing detection of binding events. To perform MST experiments, Alexa Fluor 647 (AF647) dye was covalently attached to the primary amines of hCD1d via standard N‐hydroxysuccinimide coupling chemistry (Anderson et al., [1964]). The concentration of AF647‐hCD1d was kept constant, and the change in MST signal was measured as a function of increasing detergent concentration (Figure S3). Like ITF, any lipid or detergent that destabilizes CD1 can also alter the MST signal since unfolding changes the protein's Stokes radius and its thermophoretic behavior. […] This is why we compare MST results with ITF and nanoDSF, as described below.
(§2) For MST, hCD1d was fluorescently labeled with AF647‐NHS Ester (Invitrogen #A20006). Briefly, a 10 mM stock of AF647‐NHS was prepared in anhydrous DMSO. Then, 100 μL of 50 μM hCD1d in 1X PBS pH 7.4 was mixed with 1 μL of 10 mM AF647‐NHS (1:2 molar ratio of protein: dye). The mixture was allowed to react for 1 h in the dark at 25°C. Unreacted dye was removed from the protein–dye conjugate by performing size exclusion chromatography in the dark with a Superdex 200 Increase 10/300 GL column at a flow rate of 0.5 mL/min in SEC buffer (100 mM NaCl, 20 mM sodium phosphate, pH 7.2). The degree of labeling was determined by a NanoDrop spectrophotometer at A647 nm (dye absorbance) and A280 nm (hCD1d absorbance). The degree of labeling was determined from the ratio of dye concentration to protein concentration. The degree of labeling was ~75%.
(§3) MST experiments were performed using a Monolith NT.115 instrument (NanoTemper Technologies) using Monolith standard capillaries and the red excitation laser setup. The following settings were applied for all MST experiments: excitation power: 30%–50%, MST power: medium, before MST time: 3 s, MST on time (IR laser): 20 seconds, and after MST time: 1 s. MST measurements were analyzed using the Monolith Affinity Analysis software v2.3 and exported for plotting in GraphPad Prism v10.1. Three replicates were performed, and data are presented as the mean ± standard deviation (n = 3).
(§4) MST measurements of 100 nM AF647‐hCD1d were acquired in the absence and presence of detergents in 1X PBS pH 7.4 at 25°C. Prior to data acquisition, hCD1d and detergent or lipid samples were incubated at 37°C overnight (~12 h) to simulate in vitro and in vivo loading conditions. […] For 18:1 LPC experiments: MST data of 100 nM AF647‐hCD1d were acquired in the absence and presence of 18:1 LPC in 1X PBS pH 7.4 at 25°C.
(In general: MST reads how a fluorescent partner responds to local heating, with and without ligand.)

A further series concerns CD1d. Also on record: method as in Paletta et al., 2015. The following applies: ref Paletta et al., 2015; cited from earlier work.
For series [2] the following is noted: approximate; ref Sigma Aldrich catalogue; cited from earlier work.
Series [3] concerns the target T2, AF647‐labeled hCD1d (Homo sapiens, UniProt P15813).
T2 construct: TEV protease cleavage site ENLYFQS (C); BirA biotinylation site (C); His7 (C); made in house; host or cells: TurboCHO cells (GenScript)
The series is described as follows: Microscale thermophoresis (MST) binding assay. To be noted: α‐GalCer titration with 0.05% Tween 20; estimated; read-out: K D (MST) of lipid.
Excerpt: as §1, §2, §3, §4

Series [4] concerns the target T3, hCD1d (Homo sapiens, UniProt P15813+P61769). The series is described as follows: Nano differential scanning fluorimetry (nanoDSF) thermal stability. To be noted: absence vs presence of 50 μM α‐GalCer; with 0.05% Tween 20. The series is classed as binding. Set-up: TEV protease cleavage site ENLYFQS (C); BirA biotinylation site (C); His7 (C); made in house; host or cells: TurboCHO cells (GenScript). The source says: We next sought to probe the ability of each detergent to influence the thermal stability of hCD1d. NanoDSF has been previously applied to measure lipid/detergent‐induced thermal stability changes in target proteins (Cecchetti et al., [2021]; Kotov et al., [2019]), but has not yet been applied to ligand binding to CD1. NanoDSF measures the ITF ratio (F 350 nm/F 330 nm) of proteins as a function of temperature to extract thermodynamic parameters. Given that ligand binding typically shifts the melting temperature of proteins, the effect of a ligand on protein stability can be approximated with the ΔT m value (the difference in T m with and without excess ligand) (Cecchetti et al., [2021]; Kotov et al., [2019]). We found all detergents tested to destabilize hCD1d, albeit to different degrees, with ΔT m values ranging from −0.8 to −14.2°C (Figures 4, S4, and Table 1).
Nano differential scanning fluorometry (nanoDSF) was performed using a Prometheus NT.48 (NanoTemper Technologies). Purified hCD1d at 1 μM in 1X PBS pH 7.4 was loaded into nanoDSF grade standard capillaries (NanoTemper Technologies) and exposed to temperatures ranging from 20 to 95°C with a thermal ramping rate of 1°C/min. Excitation power was set to 50%. The ratio of intrinsic fluorescence emission (F 350 nm/F 330 nm) was monitored. Melting temperatures (T m) were obtained from fitting the first derivative plots in the Prometheus NT.48 Software. The experiments were performed in triplicate, and data are presented as the mean ± standard deviation (n = 3).
For experiments with most detergents, prior to data acquisition, hCD1d and detergent or lipid samples were incubated at 37°C overnight (~12 h) to simulate in vitro and in vivo loading conditions. […] For 18:1 LPC experiments: nanoDSF spectra were acquired in the absence and presence of 18:1 LPC in 1X PBS pH 7.4 at 25°C.
(DSF heats the sample and reads unfolding from a dye or from intrinsic fluorescence.)

The target of series [5] is T3, hCD1d. Set-up: method as in Cantu et al., 2003; Naidenko et al., 1999. To be noted: previously estimated, in the presence of detergent; ref Cantu et al., 2003; Naidenko et al., 1999; read-out: binding affinity to hCD1d; cited from earlier work.
A short description of series [6]: Lipid solubility on resuspension in buffer. The series is classed as physicochemical. The following applies: 1X PBS pH 7.4 with or without detergent. The text has this: Detergents were resuspended to desired stock concentrations in 1X PBS pH 7.4 using sonication/heating. The following lipids were purchased: 1‐oleoyl‐2‐hydroxy‐sn‐glycero‐3‐phosphocholine (18:1 LPC, Avanti Research #845875) and α‐galactosyl ceramide (α‐GalCer, Avanti Research #867000).

Where “and” joins values, the source holds several entries; their conditions need not be identical. Equal entries are not always repeated. Where two headings read alike, the source gives them in different places.

T1 sequence (P61769+P15813 fused): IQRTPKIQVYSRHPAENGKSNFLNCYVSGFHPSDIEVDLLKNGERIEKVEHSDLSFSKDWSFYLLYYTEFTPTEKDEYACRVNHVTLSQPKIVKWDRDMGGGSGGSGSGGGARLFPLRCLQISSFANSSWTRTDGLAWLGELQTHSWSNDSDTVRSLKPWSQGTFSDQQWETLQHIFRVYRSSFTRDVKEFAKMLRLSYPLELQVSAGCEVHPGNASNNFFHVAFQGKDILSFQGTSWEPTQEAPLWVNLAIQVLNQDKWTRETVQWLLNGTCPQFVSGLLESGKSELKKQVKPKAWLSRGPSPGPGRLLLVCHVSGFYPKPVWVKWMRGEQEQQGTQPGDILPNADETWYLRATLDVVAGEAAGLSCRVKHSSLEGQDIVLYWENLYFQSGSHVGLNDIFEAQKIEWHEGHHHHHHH
T3 sequence (P61769+P15813 fused): as above
T2 sequence (P15813 whole entry, looked up): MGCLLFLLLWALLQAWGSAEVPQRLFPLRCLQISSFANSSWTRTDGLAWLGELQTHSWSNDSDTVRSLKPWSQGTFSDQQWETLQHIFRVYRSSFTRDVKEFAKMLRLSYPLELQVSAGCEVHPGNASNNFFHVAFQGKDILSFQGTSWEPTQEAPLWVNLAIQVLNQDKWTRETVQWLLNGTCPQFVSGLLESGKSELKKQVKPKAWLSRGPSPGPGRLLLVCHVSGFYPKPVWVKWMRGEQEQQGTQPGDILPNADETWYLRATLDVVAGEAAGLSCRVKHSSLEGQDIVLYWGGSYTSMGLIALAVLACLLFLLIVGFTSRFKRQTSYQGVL

Turning to Tyloxapol, the “Fnorm (rep 1-3)” value on AF647‐labeled hCD1d [1] (3.05176e-8 M detergent) was 791.032 ‰ and 791.82 ‰ and 793.917 ‰; at AF647‐labeled hCD1d [1] (6.10352e-8 M detergent) it was 788.237 ‰ and 790.225 ‰ and 792.188 ‰; at AF647‐labeled hCD1d [1] (1.2207e-7 M detergent), 789.186 ‰ and 789.645 ‰ and 792.672 ‰; on AF647‐labeled hCD1d [1] (2.44141e-7 M detergent), 789.349 ‰ and 791.297 ‰ and 791.601 ‰; on AF647‐labeled hCD1d [1] (4.88281e-7 M detergent), 793.87 ‰ and 796.123 ‰ and 800.037 ‰; at AF647‐labeled hCD1d [1] (9.76563e-7 M detergent), 794.535 ‰ and 800.785 ‰ and 799.868 ‰. Besides, the “Fnorm (rep 1-3)” value at AF647‐labeled hCD1d [1] (1.95313e-6 M detergent) was 799.667 ‰ and 802.675 ‰ and 807.47 ‰; at AF647‐labeled hCD1d [1] (3.90625e-6 M detergent), 800.165 ‰ and 807.424 ‰ and 808.195 ‰; on AF647‐labeled hCD1d [1] (7.8125e-6 M detergent), 803.847 ‰ and 808.251 ‰ and 810.421 ‰; on AF647‐labeled hCD1d [1] (1.5625e-5 M detergent), 804.661 ‰ and 807.958 ‰ and 808.866 ‰; on AF647‐labeled hCD1d [1] (3.125e-5 M detergent) it was 803.048 ‰ and 809.197 ‰ and 809.196 ‰; on AF647‐labeled hCD1d [1] (6.25e-5 M detergent) it was 803.488 ‰ and 807.296 ‰ and 810.346 ‰. Also, the “Fnorm (rep 1-3)” value on AF647‐labeled hCD1d [1] (0.000125 M detergent) is 802.129 ‰ and 807.585 ‰ and 809.032 ‰; on AF647‐labeled hCD1d [1] (0.00025 M detergent) it was 803.446 ‰ and 808.163 ‰ and 808.584 ‰; at AF647‐labeled hCD1d [1] (0.0005 M detergent), 803.236 ‰ and 807.226 ‰ and 808.719 ‰; on AF647‐labeled hCD1d [1] (0.001 M detergent, 100 nM AF647‐hCD1d), 804.928 ‰ and 807.69 ‰ and 809.093 ‰. Besides, the Kd on AF647‐labeled hCD1d [1] (Figure 5B, detergent binding to hCD1d, read-out: MST - Kd (uM) average) was 0.96 µM; at AF647‐labeled hCD1d [1] (detergent with 100 nM AF647‐labeled hCD1d, 25°C, apparent, read-out: K D (MST)) it was 0.9 ± 0.2 µM. In addition, the “efficiency of loading α‐GalCer analogues onto CD1d (in words)” value with CD1d was “more efficient than Tween 20 and Triton X‐100”. For the same molecule, in series [2], the CMC was 18 µM.

On to `CCCCCCCCCCCCCCCCCCCCCCCCCC(=O)N[C@@H](CO[C@H]1O[C@H](CO)[C@H](O)[C@H](O)[C@H]1O)[C@H](O)[C@H](O)CCCCCCCCCCCCCC` [α‐GalCer, α‐galactosyl ceramide], for which the Kd at AF647‐labeled hCD1d [3] is 6600 ± 4100 nM; on hCD1d [5] it was 100 to 500 nM. Further, on hCD1d [4], the “ΔT m (nanoDSF) of lipid” value is “+13.7 ± 0.2 °C”. In addition, in series [6], the “solubility (in words)” value was “only soluble in the presence of Tween 20”.
